Test results reported in ChEMBL document CHEMBL1140758, “Chemoenzymatic synthesis and antiviral evaluation of conformationally constrained and 3'-methyl-branched carbanucleosides using both enantiomers of the same building block” (Bioorg Med Chem, 2008).
Calls of active or inactive are those of the source.

What was measured:
Assay type in all cases: functional, organism-based
[1] = test system: Human respirovirus 3; experiment: Antiviral activity against parainfluenza 3 virus in Vero cells at 100 ug/mL
[2] = test system: Coxsackievirus B4; experiment: Antiviral activity against Coxsackie virus B4 in HeLa cells at 100 ug/mL
[3] = test system: Influenza A virus; experiment: Antiviral activity against influenza A virus H1N1 in MDCK cells at 100 ug/mL
[4] = test system: Respiratory syncytial virus; experiment: Antiviral activity against RSV in HeLa cells at 100 ug/mL
[5] = test system: Influenza A virus; experiment: Antiviral activity against influenza A virus H3N2 in MDCK cells at 100 ug/mL
[6] = test system: Influenza B virus; experiment: Antiviral activity against influenza B virus in MDCK cells at 100 ug/mL
[7] = test system: Vaccinia virus; experiment: Antiviral activity against vaccinia virus in HEL cells at 100 ug/mL; conditions: Orthopoxvirus vaccinia
[8] = test system: Sindbis virus; experiment: Antiviral activity against Sindbis virus in Vero cells at 100 ug/mL
[9] = test system: Human alphaherpesvirus 1; experiment: Antiviral activity against HSV1 KOS in HEL cells at 100 ug/mL
[10] = test system: Human alphaherpesvirus 1; experiment: Antiviral activity against thymidine kinase deficient HSV1 KOS in HEL cells at 100 ug/mL
[11] = test system: Vesicular stomatitis virus; experiment: Antiviral activity against VSV in HEL cells at 100 ug/mL
[12] = test system: Human alphaherpesvirus 2; experiment: Antiviral activity against HSV2 G in HEL cells at 100 ug/mL
[13] = test system: Vesicular stomatitis virus; experiment: Antiviral activity against VSV in HeLa cells at 100 ug/mL
[14] = test system: Coxsackievirus B4; experiment: Antiviral activity against Coxsackie virus B4 in Vero cells at 100 ug/mL
[15] = test system: Punta Toro virus; experiment: Antiviral activity against Punta Toro virus in Vero cells at 100 ug/mL
[16] = test system: Mammalian orthoreovirus 1; experiment: Antiviral activity against Reovirus1 in Vero cells at 100 ug/mL

Measured: Activity

C[C@]12O[C@H]1[C@H](n1cnc3c(N)ncnc31)C[C@@H]2CO
inactive: all assays above

C[C@]12C[C@H](n3cnc4c(N)ncnc43)C[C@@]1(CO)O2
inactive: all assays above

C[C@]12C[C@H](n3cnc4c(NC5CC5)nc(N)nc43)C[C@@]1(CO)O2
inactive: all assays above

C[C@]12C[C@H](n3cnc4c(NC5CC5)ncnc43)C[C@@]1(CO)O2
inactive: all assays above

C[C@]12O[C@H]1[C@H](n1cnc3c(NC4CC4)ncnc31)C[C@@H]2CO
inactive: all assays above

C[C@]12O[C@H]1[C@H](n1cnc3c(NC4CC4)nc(N)nc31)C[C@@H]2CO
inactive: all assays above
